Measured values taken from article PMC12040169 (PLOS Biology, 2025).
Converted amounts (≈) assume the structure as drawn.

Assays:
B. adolescentis = tested on: T1, B. adolescentis; test: microbe, parasite or virus in culture; design: Microbial growth in liquid dilution assay, OD600 relative to DMSO control; conditions: Bifidobacterium adolescentis; estimated IC50; read-out: B. adolescentis, IC50 (µM) estimate
T1 construct: DSM 20083
From the text: (§1) Compound effects on commensal microbes in dilution assay As our objective was to discover compounds that inhibit Chlamydia selectively but spare commensal bacteria, we further tested 15 of our top compounds (c1e–c10e and c1v–c5v) against five bacterial species, Escherichia coli, Lactobacillus reuteri, Enterococcus faecalis, Bacteroides thetaiotaomicron, and Bifidobacterium adolescentis, representing the four dominating phyla of the human gut microbiota. […] Exceptions were c3e and c5e, which at 30 µM were inhibitory to some species. […] Of note, c1e–c3e had little or no effect on the growth of an even larger set of species of gut bacteria, also including Blautia coccoides, Prevotella copri, Prevotella histicola, Bacteroides fragilis, and Dubosiella newyorkensis, when tested in radial diffusion assays, in which the bacteria were exposed to compounds for 24–48 h before measurements of growth inhibition zones (S10B Fig and S5G Data).

B. thetaiotaomicron = tested on: T2, B. thetaiotaomicron; test: microbe, parasite or virus in culture; design: Microbial growth in liquid dilution assay, OD600 relative to DMSO control; conditions: Bacteroides thetaiotaomicron; estimated IC50; read-out: B. thetaiotaomicron, IC50 (µM) estimate
T2 construct: DSM 2079
From the text: as §1

E. coli = tested on: T3, E. coli; test: microbe, parasite or virus in culture; design: Microbial growth in liquid dilution assay, OD600 relative to DMSO control; conditions: Escherichia coli; estimated IC50; read-out: E. coli, IC50 (µM) estimate
T3 construct: DSM 301
From the text: as §1

E. faecalis = tested on: T4, E. faecalis; test: microbe, parasite or virus in culture; design: Microbial growth in liquid dilution assay, OD600 relative to DMSO control; conditions: Enterococcus faecalis; estimated IC50; read-out: E. faecalis, IC50 (µM) estimate
T4 construct: DSM 20478
From the text: as §1

L. reuteri = tested on: T5, L. reuteri; test: microbe, parasite or virus in culture; design: Microbial growth in liquid dilution assay, OD600 relative to DMSO control; conditions: Limosilactobacillus reuteri; estimated IC50; read-out: L. reuteri, IC50 (µM) estimate
T5 construct: DSM 20016
From the text: as §1

[1] = tested on: T6, CTL2-GFP (C. trachomatis L2/434/Bu, GFP-expressing); test: microbe, parasite or virus in culture; design: Intracellular C. trachomatis growth in HeLa cells, bulk GFP fluorescence relative to DMSO; conditions: Chlamydia trachomatis, HeLa, 28.5 h; bulk GFP
T6 construct: L2/434/Bu, GFP-expressing
Method: (§2) MICs were calculated as described above.

[2] = tested on: T6, CTL2-GFP (C. trachomatis L2/434/Bu, GFP-expressing); test: microbe, parasite or virus in culture; design: species or system HeLa; Intracellular C. trachomatis growth in HeLa cells, bulk GFP fluorescence relative to DMSO; conditions: Chlamydia trachomatis, 28.5 h; bulk GFP
Method: as §2

in vitro [3] = test: in vitro; design: Viability of infected HeLa host cells, resazurin conversion, bulk resorufin fluorescence relative to DMSO; conditions: human, hela cells; bulk resorufin, mean of 3
[4] = tested on: T6, CTL2-GFP (C. trachomatis L2/434/Bu, GFP-expressing); test: microbe, parasite or virus in culture; design: C. trachomatis growth in HeLa, dose-response, mean of bulk GFP fluorescence and imaged total inclusion area; conditions: Chlamydia trachomatis, HeLa, 28.5 h; mean of GFP and inclusion area
How it was run: (§3)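 GFP/resorufin bulk fluorescence read → fix → Hoechst stain → high-content imaging. Inclusion total area + count = growth proxy; nuclei count = host viability proxy. MIC calc per earlier method.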

L. crispatus = tested on: T7, L. crispatus; test: microbe, parasite or virus in culture; design: Microbial growth in liquid dilution assay, OD600 relative to DMSO control; conditions: Lactobacillus crispatus; estimated IC50; read-out: L. crispatus, IC50 (µM) estimate
T7 construct: DSM 20584

L. iners = tested on: T8, L. iners; test: organism not typed; design: Microbial growth in liquid dilution assay, OD600 relative to DMSO control; conditions: estimated IC50; read-out: L. iners, IC50 (µM) estimate
T8 construct: DSM 13335

G. vaginalis = tested on: T9, G. vaginalis; test: microbe, parasite or virus in culture; design: Microbial growth in liquid dilution assay, OD600 relative to DMSO control; conditions: Gardnerella vaginalis, read-out: G. vaginalis, IC50 (µM) estimate
T9 construct: DSM 4944

C. albicans = tested on: T10, C. albicans; test: microbe, parasite or virus in culture; design: Microbial growth in liquid dilution assay, OD600 relative to DMSO control; conditions: Candida albicans, read-out: C. albicans, IC50 (µM) estimate
T10 construct: DSM 1577

[5] = tested on: T6, CTL2-GFP (C. trachomatis L2/434/Bu, GFP-expressing); test: microbe, parasite or virus in culture; design: species or system HeLa; C. trachomatis growth in HeLa, dose-response, mean of bulk GFP fluorescence and imaged total inclusion area; conditions: Chlamydia trachomatis, 28.5 h; mean of GFP and inclusion area
How it was run: as §3

in vitro [6] = test: in vitro; design: Viability of infected HeLa host cells, resazurin conversion, bulk resorufin fluorescence relative to DMSO; conditions: human, hela cells; bulk resorufin, single well

## CCc1nnc(NS(=O)(=O)c2ccc(NC(=O)COc3ccc4ccccc4c3)cc2)s1 [c5v]
B. adolescentis
  IC50: > 30 µM
B. thetaiotaomicron
  IC50: > 30 µM
E. coli
  IC50: > 30 µM
E. faecalis
  IC50: > 30 µM
L. reuteri
  IC50: > 30 µM
[1]
  IC50: 1.43 µM
[2]
  MIC: 2.24 µM (≈ 1.05 µg/mL)

## O=C(CC1CCN(CCc2ccccc2)CC1)Nc1cccc(-n2cccn2)c1 [c4e]
In vitro [3]
  viability at 28.5 h, 0.000416667 µM: 92.2%
  viability at 28.5 h, 0.00125 µM: 95.9%
  viability at 28.5 h, 0.00375 µM: 89.2%
  viability at 28.5 h, 0.0123333 µM: 92.7%
  viability at 28.5 h, 0.037 µM: 90.6%
  viability at 28.5 h, 0.111 µM: 94.2%
  viability at 28.5 h, 0.333 µM: 86.2%
  viability at 28.5 h, 1 µM: 89.9%
  viability at 28.5 h, 3 µM: 82.9%
  viability at 28.5 h, 10 µM: 88.5%
  viability at 28.5 h, 30 µM: 87.2%
[4]
  IC50: 0.332 µM
B. adolescentis
  IC50: > 30 µM
B. thetaiotaomicron
  IC50: > 30 µM
E. coli
  IC50: > 30 µM
E. faecalis
  IC50: > 30 µM
L. reuteri
  IC50: > 30 µM
L. crispatus
  IC50: > 30 µM
L. iners
  IC50: > 30 µM
G. vaginalis
  IC50: > 30 µM
C. albicans
  IC50: > 30 µM
[5]
  MIC: 1.56 µM (≈ 0.605 µg/mL)

## S=P(Oc1ccccc1)(Oc1ccccc1)Oc1ccccc1 [CBK260987]
In vitro [6]
  viability at 28.5 h, 10 µM: 87.5%

## O=C(N/N=C/c1ccc(Sc2cccc3cccnc23)o1)c1cccc(F)c1 [c10e]
In vitro [3]
  viability at 28.5 h, 0.000416667 µM: 84.5%
  viability at 28.5 h, 0.00125 µM: 93.8%
  viability at 28.5 h, 0.00375 µM: 84.5%
  viability at 28.5 h, 0.0123333 µM: 91.6%
  viability at 28.5 h, 0.037 µM: 82.9%
  viability at 28.5 h, 0.111 µM: 92.9%
  viability at 28.5 h, 0.333 µM: 88%
  viability at 28.5 h, 1 µM: 94.1%
  viability at 28.5 h, 3 µM: 89.3%
  viability at 28.5 h, 10 µM: 89.9%
  viability at 28.5 h, 30 µM: 81.1%
[4]
  IC50: 0.828 µM
B. adolescentis
  IC50: > 30 µM
B. thetaiotaomicron
  IC50: > 30 µM
E. coli
  IC50: > 30 µM
E. faecalis
  IC50: > 30 µM
L. reuteri
  IC50: > 30 µM
[5]
  MIC: 5.57 µM (≈ 2.18 µg/mL)

## CNC(=S)N1CCN(c2nsc3ccccc23)CC1 [c6e]
In vitro [3]
  viability at 28.5 h, 0.000416667 µM: 103%
  viability at 28.5 h, 0.00125 µM: 100%
  viability at 28.5 h, 0.00375 µM: 99.1%
  viability at 28.5 h, 0.0123333 µM: 101%
  viability at 28.5 h, 0.037 µM: 97.3%
  viability at 28.5 h, 0.111 µM: 105%
  viability at 28.5 h, 0.333 µM: 101%
  viability at 28.5 h, 1 µM: 108%
  viability at 28.5 h, 3 µM: 103%
  viability at 28.5 h, 10 µM: 102%
  viability at 28.5 h, 30 µM: 76%
[4]
  IC50: 0.413 µM
B. adolescentis
  IC50: > 30 µM
B. thetaiotaomicron
  IC50: > 30 µM
E. coli
  IC50: > 30 µM
E. faecalis
  IC50: > 30 µM
L. reuteri
  IC50: > 30 µM
[5]
  MIC: 0.771 µM (≈ 0.225 µg/mL)

## CCc1cccc(OCC(=O)Nc2ccc(S(=O)(=O)Nc3onc(C)c3C)cc2)c1 [c2v]
B. adolescentis
  IC50: > 30 µM
B. thetaiotaomicron
  IC50: > 30 µM
E. coli
  IC50: > 30 µM
E. faecalis
  IC50: > 30 µM
L. reuteri
  IC50: > 30 µM
L. crispatus
  IC50: > 30 µM
L. iners
  IC50: > 30 µM
G. vaginalis
  IC50: > 30 µM
C. albicans
  IC50: > 30 µM
[1]
  IC50: 0.471 µM
[2]
  MIC: 0.693 µM (≈ 0.298 µg/mL)

## CCOC(=O)CC(C)(O)P(=O)(OC)OC (stereo not drawn) [CBK261287]
In vitro [6]
  viability at 28.5 h, 10 µM: 101%
